According to patent US20130303535A1, “NOVEL BICYCLIC HETEROCYCLIC COMPOUND” (priority 2008, published 2013):
Counter-ions that a name gives are not always drawn.

molecular target: TTX resistant Na channel of human SNS-expressing cell (SNS) (Homo sapiens, UniProt Q9Y5Y9); assay: cell-based; details: CHO-K1, compound concentration 12.5 μM; read-out: SNS inhibitory rate (%)
Sequence (Q9Y5Y9 whole entry, looked up): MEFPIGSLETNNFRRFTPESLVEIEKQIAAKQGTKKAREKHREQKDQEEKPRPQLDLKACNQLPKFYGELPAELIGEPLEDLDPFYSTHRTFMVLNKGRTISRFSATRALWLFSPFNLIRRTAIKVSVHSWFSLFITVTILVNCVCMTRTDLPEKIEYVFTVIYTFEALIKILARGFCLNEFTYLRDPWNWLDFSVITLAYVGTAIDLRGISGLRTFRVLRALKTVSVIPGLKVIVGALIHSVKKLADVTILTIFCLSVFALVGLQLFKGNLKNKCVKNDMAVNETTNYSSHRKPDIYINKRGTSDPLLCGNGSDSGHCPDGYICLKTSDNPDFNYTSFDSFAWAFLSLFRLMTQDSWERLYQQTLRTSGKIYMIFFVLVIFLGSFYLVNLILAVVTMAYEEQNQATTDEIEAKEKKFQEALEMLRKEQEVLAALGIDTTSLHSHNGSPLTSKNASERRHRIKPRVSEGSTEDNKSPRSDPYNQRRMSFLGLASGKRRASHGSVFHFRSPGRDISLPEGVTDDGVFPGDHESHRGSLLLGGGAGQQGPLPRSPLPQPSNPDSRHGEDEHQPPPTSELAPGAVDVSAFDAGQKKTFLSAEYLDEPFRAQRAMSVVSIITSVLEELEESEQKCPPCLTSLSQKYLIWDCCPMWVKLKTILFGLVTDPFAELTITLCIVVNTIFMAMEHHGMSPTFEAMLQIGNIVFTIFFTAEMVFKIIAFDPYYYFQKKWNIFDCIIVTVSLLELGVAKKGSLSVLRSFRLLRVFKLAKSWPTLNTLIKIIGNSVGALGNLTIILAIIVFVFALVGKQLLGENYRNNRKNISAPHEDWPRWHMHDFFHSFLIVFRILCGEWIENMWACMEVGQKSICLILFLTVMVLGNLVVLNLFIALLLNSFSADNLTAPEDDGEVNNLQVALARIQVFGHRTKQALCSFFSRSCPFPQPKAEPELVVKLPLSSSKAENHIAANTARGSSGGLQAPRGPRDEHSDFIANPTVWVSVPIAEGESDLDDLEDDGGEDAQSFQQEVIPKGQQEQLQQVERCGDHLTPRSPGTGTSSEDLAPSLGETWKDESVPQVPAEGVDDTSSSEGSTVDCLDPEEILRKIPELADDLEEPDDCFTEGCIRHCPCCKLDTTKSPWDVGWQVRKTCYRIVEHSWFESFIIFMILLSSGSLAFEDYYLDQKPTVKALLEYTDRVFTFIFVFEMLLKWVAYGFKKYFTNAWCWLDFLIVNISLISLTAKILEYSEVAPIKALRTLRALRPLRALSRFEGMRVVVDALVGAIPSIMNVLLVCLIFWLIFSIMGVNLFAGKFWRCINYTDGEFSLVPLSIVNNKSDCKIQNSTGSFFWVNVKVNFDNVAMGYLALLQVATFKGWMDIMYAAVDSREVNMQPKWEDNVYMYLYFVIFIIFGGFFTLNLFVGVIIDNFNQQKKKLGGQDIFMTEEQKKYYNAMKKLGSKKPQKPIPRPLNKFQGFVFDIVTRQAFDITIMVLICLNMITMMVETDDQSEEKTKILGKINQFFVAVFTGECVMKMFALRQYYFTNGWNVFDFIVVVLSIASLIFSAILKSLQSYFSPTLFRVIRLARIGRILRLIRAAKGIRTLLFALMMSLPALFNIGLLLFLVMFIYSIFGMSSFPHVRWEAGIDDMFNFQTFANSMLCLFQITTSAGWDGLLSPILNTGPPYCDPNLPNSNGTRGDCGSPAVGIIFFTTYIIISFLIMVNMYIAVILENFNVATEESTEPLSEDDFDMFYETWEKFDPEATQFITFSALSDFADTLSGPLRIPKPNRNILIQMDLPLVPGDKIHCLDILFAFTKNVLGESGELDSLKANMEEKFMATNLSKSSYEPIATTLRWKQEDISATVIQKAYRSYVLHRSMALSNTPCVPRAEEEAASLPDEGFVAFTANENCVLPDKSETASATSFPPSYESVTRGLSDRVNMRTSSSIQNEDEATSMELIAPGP

Point of comparison: `CCOCCn1c(CNCC(N)=O)nc2ccc(-c3ccc(Cl)cc3)cc21` [Example 72], inhibition at 12.5 µM 7.3%. Against it:
- CC(C)OCCn1c(CNCC(N)=O)nc2ccc(Oc3ccc(F)cc3)cc21 [Example 61] — higher, 26.1%
- CCOCCn1c(CN[C@@H](C)C(N)=O)nc2ccc(Oc3ccc(CC)cc3)cc21 [Example 102] — higher, 96.3%
- CCOCCn1c(CN[C@@H](CC)C(N)=O)nc2ccc(Oc3ccccc3)cc21 [Example 37] — higher, 42.3%
- CCOCCn1c(CN[C@@H](C)C(N)=O)nc2ccc(-c3ccc(C)cc3)cc21 [Example 144] — lower, 6.1%
- CCOCCn1c(CN[C@@H](C)C(N)=O)nc2ccc(Oc3ccccc3F)cc21 [Example 52] — higher, 89.7%
- CC(C)(NCc1nc2ccc(Oc3ccc(F)cc3)cc2n1CCO)C(N)=O [Example 143] — higher, 27.7%
- C[C@H](NCc1nc2ccc(Oc3ccc(OC(F)(F)F)cc3)cc2n1CCO)C(N)=O [Example 134] — higher, 95.7%
- CCn1c(CN[C@@H](C)C(N)=O)nc2ccc(Oc3ccc(OC(F)(F)F)cc3)cc21 [Example 104] — higher, 83.6%
- CCOCCn1c(CN[C@H](C)C(N)=O)nc2ccc(Oc3ccccc3)cc21 [Example 36] — lower, 0.4%
- CCOCCn1c(CN[C@@H](C)C(N)=O)nc2ccc(Oc3ccc(C#N)cc3)cc21 [Example 45] — higher, 40.6%
- CCn1c(CN[C@@H](C)C(N)=O)nc2ccc(Oc3ccc(C)cc3)cc21 [Example 96] — higher, 84.8%
- CCOCCn1c(CN[C@@H](C)C(N)=O)nc2ccc(-c3ccc(C)c(C)c3)cc21 [Example 161] — higher, 76.2%
- CCOCCn1c(CNC(C)(C)C(N)=O)nc2ccc(Oc3ccc(F)c(F)c3)cc21 [Example 141] — higher, 90.3%
- CC(C)(NCc1nc2ccc(Oc3ccccc3)cc2n1C[C@@H]1CCCO1)C(N)=O [Example 35] — higher, 10.8%
- C[C@H](NCc1nc2ccc(Oc3ccc(F)cc3)cc2n1C1CCN(C(=O)OC(C)(C)C)CC1)C(N)=O [Example 82, tert-butyl 4-[2-({[(2S)-1-amino-1-oxopropan-2-yl]amino}methyl)-6-(4-fluorophenoxy)-1H-benzimidazol-1-yl]piperidine-1-carboxylate] — higher, 30.7%
- CCOCCn1c(CNC(C)(C)C(N)=O)nc2ccc(-c3ccc(F)c(C)c3)cc21 [Example 168] — higher, 20.2%
- CCOCCn1c(CN[C@@H](C)C(N)=O)nc2cc(Cl)c(-c3ccccc3)cc21 [Example 177] — higher, 22.5%
- COCCCn1c(CN[C@@H](C)C(N)=O)nc2ccc(Oc3ccccc3)cc21 [Example 24] — lower, 5.8%
- CCOCCn1c(CN[C@@H](C)C(N)=O)nc2ccc(-c3ccc(F)c(F)c3)cc21 [Example 148] — higher, 17%
- CCn1c(CN[C@@H](C)C(N)=O)nc2ccc(Oc3ccc(F)cc3)cc21 [Example 139] — higher, 96%
- CCOCCn1c(CN[C@@H](C)C(=O)NCC(C)(C)O)nc2ccc(Oc3ccc(F)cc3)cc21 [Example 87, N^2-{[1-(2-ethoxyethyl)-6-(4-fluorophenoxy)-1H-benzimidazol-2-yl]methyl}-N-(2-hydroxy-2-methylpropyl)-L-alaninamide] — higher, 90.1%
- C[C@H](NCc1nc2ccc(Oc3ccc(F)cc3)cc2n1CCO)C(N)=O [Example 117, N^2-{[6-(4-fluorophenoxy)-1-(2-hydroxyethyl)-1H-benzimidazol-2-yl]methyl}-L-alaninamide] — higher, 78.8%
- CCOCCn1c(CN[C@@H](C)C(N)=O)nc2ccc(OCc3ccccc3)cc21 [Example 76, N^2-{[6-(benzyloxy)-1-(2-ethoxyethyl)-1H-benzimidazol-2-yl]methyl}-L-alaninamide] — higher, 18.8%
- CCOCCn1c(CN[C@@H](C)C(N)=O)nc2ccc(Oc3ccc(F)cc3F)cc21 [Example 49] — higher, 94.8%
- CCOCCn1c(CN[C@H](C)C(N)=O)nc2ccc(Oc3ccc(F)cc3)cc21 [Example 54] — higher, 95.7%
- COCCCn1c(CN[C@@H](C)C(N)=O)nc2ccc(Oc3ccc(OC(F)(F)F)cc3)cc21 [Example 127] — higher, 93.9%
- CCOCCn1c(CN[C@@H](C)C(N)=O)nc2ccc(Oc3cccc(F)c3F)cc21 [Example 58] — higher, 71.2%
- CCOCCn1c(CN[C@@H](C)C(N)=O)nc2ccc(Oc3ccccc3)cc21 [Example 1, N^2-{[1-(2-ethoxyethyl)-6-phenoxy-1H-benzimidazol-2-yl]methyl}-L-alaninamide] — higher, 45.8%
- CCn1c(CNC(C)(C)C(N)=O)nc2ccc(Oc3ccc(F)cc3)cc21 [Example 138] — higher, 93.1%
- C[C@H](NCc1nc2ccc(Oc3ccccc3)cc2n1CC1CCOCC1)C(N)=O [Example 13] — higher, 29.8%
- CCOCCn1c(CN[C@@H](C)C(N)=O)nc2cc(-c3ccc(Cl)cc3)ccc21 [Example 191, N^2-{[5-(4-chlorophenyl)-1-(2-ethoxyethyl)-1H-benzimidazol-2-yl]methyl}-L-alaninamide hydrochloride] — higher, 23.3%
- CCOCCn1c(CN[C@@H](C)C(N)=O)nc2ccc(Oc3ccccc3)nc21 [Example 79, N^2-{[3-(2-ethoxyethyl)-5-phenoxy-3H-imidazo[4,5-b]pyridin-2-yl]methyl}-L-alaninamide] — lower, 3.5%
- CCOCCn1c(CN[C@@H](C)C(N)=O)nc2ccc(-c3ccc(C(F)(F)F)cc3)cc21 [Example 146] — higher, 19.7%
- CCOCCn1c(CN[C@@H](C)C(N)=O)nc2ccc(-c3ccc(Cl)cc3)cc21 [Example 73] — higher, 8%
- CCOCCn1c(CNCC(N)=O)nc2ccc(-c3ccccc3Cl)cc21 [Example 70] — higher, 11.2%
- CCOCCn1c(CN[C@@H](C)C(N)=O)nc2cc(Cl)c(-c3ccc(C(F)(F)F)cc3)cc21 [Example 182] — lower, 0%
- CCOCCn1c(CN[C@@H](C)C(N)=O)nc2ccc(-c3ccc(F)cc3)cc21 [Example 68] — higher, 16%
- CCOCCn1c(CN[C@@H](CC)C(N)=O)nc2ccc(Oc3ccc(F)cc3)cc21 [Example 41] — higher, 99.7%
- CCOCCn1c(CN[C@@H](C)C(N)=O)nc2cc(-c3ccc(OC)cc3)ccc21 [Example 192, N^2-{[1-(2-ethoxyethyl)-5-(4-methoxyphenyl)-1H-benzimidazol-2-yl]methyl}-L-alaninamide trifluoroacetate] — higher, 11.9%
- NC(=O)CNCc1nc2ccc(Oc3ccc(F)cc3)cc2n1C1CCOCC1 [Example 65] — higher, 47.8%
- CCOCCn1c(CNCC(N)=O)nc2ccc(Oc3ccc(Cl)cc3)cc21 [Example 28] — higher, 27.4%
- CCOCCn1c(CN[C@@H](C)C(=O)N2CCOCC2)nc2ccc(Oc3ccc(F)cc3)cc21 [Example 90] — higher, 96.1%
- CCOCCn1c(CN[C@@H](C)C(N)=O)nc2cc(F)c(-c3ccc(C)cc3)cc21 [Example 184] — higher, 87.9%
- CCn1c(CNC(C)(C)C(N)=O)nc2ccc(-c3ccc(F)cc3)cc21 [Example 154] — higher, 11.2%
- CCOCCn1c(CN[C@@H](C)C(N)=O)nc2ccc(OCc3ccc(F)cc3)cc21 [Example 78, N^2-({1-(2-ethoxyethyl)-6-[(4-fluorobenzyl)oxy]-1H-benzimidazol-2-yl}methyl)-L-alaninamide] — higher, 22.2%
- C[C@H](NCc1nc2ccc(Oc3ccccc3)cc2n1C[C@H]1CCCO1)C(N)=O [Example 20] — lower, 7.2%
- CCOCCn1c(CN[C@@H](C)C(N)=O)nc2ccc(-c3ccc(OC(F)(F)F)cc3)cc21 [Example 145] — lower, 1.3%
- CCOCCn1c(CNC(C)(C)C(N)=O)nc2ccc(-c3ccc(C)cc3F)cc21 [Example 166] — higher, 62.7%
- CCOCCn1c(CN[C@@H](C)C(=O)N2CCNC(C(F)(F)F)C2)nc2ccc(Oc3ccc(F)cc3)cc21 (some centres unmarked) [Example 108] — higher, 85.3%
- CCOCCn1c(CNCC(N)=O)nc2ccc(-c3ccc(F)cc3)cc21 [Example 67] — higher, 30.8%
- C[C@H](NCc1nc2ccc(Oc3ccc(F)cc3)cc2n1C1CCNCC1)C(N)=O [Example 83, N^2-{[6-(4-fluorophenoxy)-1-(piperidin-4-yl)-1H-benzimidazol-2-yl]methyl}-L-alaninamide] — lower, 0%
- CCOCCn1c(CN[C@@H](CC)C(N)=O)nc2ccc(-c3ccc(F)cc3)cc21 [Example 150] — higher, 45.6%
- COCCn1c(CNC(C)(C)C(N)=O)nc2ccc(Oc3ccc(F)cc3)cc21 [Example 91, N^2-{[6-(4-fluorophenoxy)-1-(2-methoxyethyl)-1H-benzimidazol-2-yl]methyl}-2-methylalaninamide] — higher, 76.4%
- CCOCCn1c(CN[C@@H](C)C(N)=O)nc2ccc(Oc3ccc(OC(F)(F)F)cc3)cc21 [Example 43] — higher, 61%
- COCCCn1c(CN[C@@H](C)C(N)=O)nc2ccc(Oc3ccc(F)cc3F)cc21 [Example 123] — higher, 96.8%
- C[C@H](NCc1nc2ccc(Oc3ccc(F)cc3)cc2n1C1CC1)C(N)=O [Example 7] — higher, 83.1%
- Cc1ccc(Oc2ccc3nc(CN[C@@H](C)C(N)=O)n(CC(C)(C)O)c3c2)cc1 [Example 101] — higher, 85.2%
- CCOCCn1c(CN[C@@H](C)C(N)=O)nc2ccc(Oc3ccc(F)c(F)c3)cc21 [Example 48] — higher, 96.7%
- CCOCCn1c(CNC(C)(C)C(N)=O)nc2ccc(-c3ccc(C)c(C)c3)cc21 [Example 162] — higher, 67.3%
- CCn1c(CN[C@@H](C)C(N)=O)nc2ccc(-c3ccc(F)cc3)cc21 [Example 110, N^2-{[1-ethyl-6-(4-fluorophenyl)-1H-benzimidazol-2-yl]methyl}-L-alaninamide] — higher, 9.8%
- CCOCCn1c(CN[C@@H](C)C(N)=O)nc2ccc(Oc3cccc(Cl)c3)cc21 [Example 29] — higher, 27%
- C[C@H](NCc1nc2ccc(Oc3ccc(F)cc3F)cc2n1CC(C)(C)O)C(N)=O [Example 105] — higher, 75.1%
- CCOCCn1c(CN[C@@H](C)C(N)=O)nc2ccc(-c3ccccc3C)cc21 [Example 153] — higher, 28.5%
- CCOCCn1c(CN[C@@H](C)C(N)=O)nc2ccc(Oc3ccc(C)cc3)cc21 [Example 42] — higher, 76.7%
